Values of other authors as cited in patent publication US10548835B2, “Methods of reducing the signs of skin aging” (Kimberly-Clark Worldwide, Inc., priority 2014, dated 2020).

System: 3T3-L1 cells
Settings: literature

With Fucoidan as the substance, how does the “adipogenesis (adipocyte differentiation)” value read?
Its value is “inhibit adipogenesis”.
